Test results taken from paper PMC6864537, “Novel Thiazolidin-4-ones as Potential Non-Nucleoside Inhibitors of HIV-1 Reverse Transcriptase” (Molecules, 2019).

Target: T1, HIV-1 Reverse Transcriptase (Human immunodeficiency virus type 1 group M subtype B, UniProt P03366)
T1 construct: Lys101, Val179 (p66 subunit) and Glu138 (p51 subunit); purchased Roche
Assay: HIV-1 RT inhibitory action, colorimetric photometric immunoassay kit (Roche)
Format: biochemical
Conditions: for IC50: IC50 (μM), 45 min pre-incubation, 2 h at 37 °C
Protocol: For the evaluation of the HIV-1 Reverse Transcriptase activity, the colorimetric photometric immunoassay kit provided by Roche was used. A two hours incubation at 37 °C was performed, as previously described in our paper following a pre-incubation step in which reverse transcriptase was incubated in the presence of the potential inhibitor for 45 min at room temperature before the addition of the substrate. The total-activity was measured in the absence of inhibitors (compounds) with the addition of an equal volume of the solvent of the compounds to the reaction mixture. For the determination of enzyme activity, incubation in the absence of enzyme was used as blank. Different inhibitor concentrations were added for the calculation of IC50 values.

SMILES	inhibition at 4 µM	IC50
CCOc1ccc2nc(N3C(=O)CSC3c3ccc([N+](=O)[O-])cc3)sc2c1 (stereo not shown) [Compound 25, 3-(6-Ethoxy-benzo[d]thiazol-2-yl)-2-(4-nitrophenyl)thiazolidin-4-one]	44%	> 4 µM
COc1ccc(C2SCC(=O)N2c2nc3ccc(OC)cc3s2)cc1 (stereo not shown) [Compound 23, 3-(6-Methoxy-benzo[d]thiazol-2-yl)-2-(4-methoxyphenyl)thiazolidin-4-one]	73%	2.39 µM
O=C1CSC(c2ccc([N+](=O)[O-])cc2)N1c1nc2c(Cl)cccc2s1 (stereo not shown) [Compound 11, 3-(4-Chloro-benzo[d]thiazol-2-yl)-2-(4-nitrophenyl)thiazolidin-4-one]	40%	> 4 µM
O=C1CSC(c2ccc(O)cc2)N1c1nc2ccc(Cl)cc2s1 (stereo not shown) [Compound 9, 3-(6-Chloro-benzo[d]thiazol-2-yl)-2-(4-hydroxyphenyl)thiazolidin-4-one]	56%	0.001 µM
COc1cccc2sc(N3C(=O)CSC3c3ccc(Cl)cc3)nc12 (stereo not shown) [Compound 17, 3-(4-Methoxy-benzo[d]thiazol-2-yl)-2-(4-chlorophenyl)thiazolidin-4-one]	67%	2.6 µM
COc1ccc(C2SCC(=O)N2c2nc3ccc(F)cc3s2)cc1 (stereo not shown) [Compound 6, 3-(6-Fluoro-benzo[d]thiazol-2-yl)-2-(4-methoxyphenyl)thiazolidin-4-one]	35%	> 4 µM
CCOc1ccc2nc(N3C(=O)CSC3c3ccc(Cl)cc3)sc2c1 (stereo not shown) [Compound 26, 3-(6-Ethoxy-benzo[d]thiazol-2-yl)-2-(4-chlorophenyl)thiazolidin-4-one]	73%	2.48 µM
O=C1CSC(c2ccc(Cl)cc2)N1c1nc2ccc(F)cc2s1 (stereo not shown) [Compound 5, 3-(6-Fluoro-benzo[d]thiazol-2-yl)-2-(4-chlorophenyl)thiazolidin-4-one]	44%	> 4 µM
O=C1CSC(c2ccc(O)cc2)N1c1nc2c(Cl)cccc2s1 (stereo not shown) [Compound 14, 3-(4-Chloro-benzo[d]thiazol-2-yl)-2-(4-hydroxyphenyl)thiazolidin-4-one]	83%	0.01 µM
O=C1CSC(c2ccc(F)cc2)N1c1nc2c(Cl)cccc2s1 (stereo not shown) [Compound 10, 3-(4-Chloro-benzo[d]thiazol-2-yl)-2-(4-fluorophenyl)thiazolidin-4-one]	63%	0.001 µM
COc1ccc2nc(N3C(=O)CSC3c3ccc(F)cc3)sc2c1 (stereo not shown) [Compound 20, 3-(6-Methoxy-benzo[d]thiazol-2-yl)-2-(4-fluorophenyl)thiazolidin-4-one]	55%	1.51 µM
COc1cccc2sc(N3C(=O)CSC3c3ccc(F)cc3)nc12 (stereo not shown) [Compound 15, 3-(4-Methoxy-benzo[d]thiazol-2-yl)-2-(4-flurophenyl)thiazolidin-4-one]	69%	2.08 µM
O=C1CSC(c2c(F)cccc2F)N1c1nc2cccc(Cl)c2s1 (stereo not shown) [Compound 1, 3-(7-Chloro-benzo[d]thiazol-2-yl)-2-(2,6-difluorophenyl)thiazolidin-4-one]	70%	0.21 µM
O=C1CSC(c2ccc([N+](=O)[O-])cc2)N1c1nc2ccc(F)cc2s1 (stereo not shown) [Compound 4, 3-(6-Fluoro-benzo[d]thiazol-2-yl)-2-(4-nitrophenyl)thiazolidin-4-one]	54%	3.8 µM
O=C1CSC(c2ccc(Cl)cc2)N1c1nc2c(Cl)cccc2s1 (stereo not shown) [Compound 12, 3-(4-Chloro-benzo[d]thiazol-2-yl)-2-(4-chlorophenyl)thiazolidin-4-one]	50%	4 µM
O=C1CSC(c2c(Cl)cccc2Cl)N1c1nc2ccc(OC(F)(F)F)cc2s1 (stereo not shown) [Compound 29, 3-(6-Trifluoromethoxy-benzo[d]thiazol-2-yl)-2-(2,6-dichlorophenyl) thiazolidin-4-one]	49%	4.28 µM

SMILES	inhibition at 4 µM	IC50
CCOc1ccc2nc(N3C(=O)CSC3c3ccc(O)cc3)sc2c1 (stereo not shown) [Compound 28, 3-(6-Ethoxy-benzo[d]thiazol-2-yl)-2-(4-hydroxyphenyl)thiazolidin-4-one]	62%	2 µM
O=C1CSC(c2ccc(Cl)cc2)N1c1nc2ccc(OC(F)(F)F)cc2s1 (stereo not shown) [Compound 32, 3-(6-Trifluoromethoxy-benzo[d]thiazol-2-yl)-2-(4-chlorophenyl)thiazolidin-4-one]	46%	> 4 µM
COc1cccc2sc(N3C(=O)CSC3c3ccc(O)cc3)nc12 (stereo not shown) [Compound 19, 3-(4-Methoxy-benzo[d]thiazol-2-yl)-2-(4-hydroxyphenyl)thiazolidin-4-one]	71%	2.62 µM
O=C1CSC(c2c(F)cccc2Cl)N1c1nc2cccc(Cl)c2s1 (stereo not shown) [Compound 2, 3-(7-Chloro-benzo[d]thiazol-2-yl)-2-(2-chloro-6-fluorophenyl)thiazolidin-4-one]	72%	0.0047 µM
O=C1CSC(c2cccc(Cl)c2Cl)N1c1nc2ccc(OC(F)(F)F)cc2s1 (stereo not shown) [Compound 30, 3-(6-Trifluoromethoxy-benzo[d]thiazol-2-yl)-2-(2,3-dichlorophenyl) thiazolidin-4-one]	46%	> 4 µM
O=C1CSC(c2ccc([N+](=O)[O-])cc2)N1c1nc2ccc(OC(F)(F)F)cc2s1 (stereo not shown) [Compound 31, 3-(6-Trifluoromethoxy-benzo[d]thiazol-2-yl)-2-(4-nitrophenyl)thiazolidin-4-one]	46%	> 4 µM
COc1cccc2sc(N3C(=O)CSC3c3ccc([N+](=O)[O-])cc3)nc12 (stereo not shown) [Compound 16, 3-(4-Methoxy-benzo[d]thiazol-2-yl)-2-(4-nitrophenyl)thiazolidin-4-one]	68%	2.2 µM
COc1ccc(C2SCC(=O)N2c2nc3c(OC)cccc3s2)cc1 (stereo not shown) [Compound 18, 3-(4-Methoxy-benzo[d]thiazol-2-yl)-2-(4-methoxyphenyl)thiazolidin-4-one]	72%	2.69 µM
COc1ccc2nc(N3C(=O)CSC3c3ccc([N+](=O)[O-])cc3)sc2c1 (stereo not shown) [Compound 21, 3-(6-Methoxy-benzo[d]thiazol-2-yl)-2-(4-nitrophenyl)thiazolidin-4-one]	50%	4 µM
O=C1CSC(c2ccc(F)cc2)N1c1nc2ccc(Cl)cc2s1 (stereo not shown) [Compound 8, 3-(6-Chloro-benzo[d]thiazol-2-yl)-2-(4-fluorophenyl)thiazolidin-4-one]	83%	0.26 µM
CCOc1ccc2nc(N3C(=O)CSC3c3ccc(F)cc3)sc2c1 (stereo not shown) [Compound 24, 3-(6-Ethoxy-benzo[d]thiazol-2-yl)-2-(4-fluorophenyl)thiazolidin-4-one]	36%	> 4 µM
COc1ccc(C2SCC(=O)N2c2nc3c(Cl)cccc3s2)cc1 (stereo not shown) [Compound 13, 3-(4-Chloro-benzo[d]thiazol-2-yl)-2-(4-methoxyphenyl)thiazolidin-4-one]	65%	1.99 µM
CCOc1ccc2nc(N3C(=O)CSC3c3ccc(OC)cc3)sc2c1 (stereo not shown) [Compound 27, 3-(6-Ethoxy-benzo[d]thiazol-2-yl)-2-(4-methoxyphenyl)thiazolidin-4-one]	76%	1.93 µM
O=C1CSC(c2ccc(O)cc2)N1c1nc2ccc(F)cc2s1 (stereo not shown) [Compound 7, 3-(6-Fluoro-benzo[d]thiazol-2-yl)-2-(4-hydroxyphenyl)thiazolidin-4-one]	50%	4 µM
O=C1CSC(c2ccc(F)cc2)N1c1nc2ccc(F)cc2s1 (stereo not shown) [Compound 3, 3-(6-Fluoro-benzo[d]thiazol-2-yl)-2-(4-fluorophenyl)thiazolidin-4-one]	72%	0.15 µM
COc1ccc2nc(N3C(=O)CSC3c3ccc(Cl)cc3)sc2c1 (stereo not shown) [Compound 22, 3-(6-Methoxy-benzo[d]thiazol-2-yl)-2-(4-chlorophenyl)thiazolidin-4-one]	72%	2.76 µM
